Measurements: patent US6924314B2, “Compounds for the treatment of metabolic disorders” (Wellstat Therapeutics Corporation, priority 2001, dated 2005)

What was measured:
[1] = system: mice with severe insulin-dependent diabetes; test: Mortality in severe insulin-dependent diabetes (multiple high doses of STZ); assay type: in vivo; conditions: STZ 75 mg/kg i.p. x5 balb/C mice, 30 mg/kg/day oral, after three weeks of daily treatment
Protocol: Female balb/C mice (19 wks of age at start of experiment) were challenged with multiple high doses of STZ (75 mg/kg i.p. on 5 consecutive days). Animals were then divided in two groups (20 mice/group) matched for severity of diabetes. Four days after the last dose of STZ, treatments were initiated. One group received Vehicle (0.4 ml of 0.75% HPMC, p.o.), and the other group received oral COMPOUND AA (30 mg/kg/day). After three weeks of daily treatment, cumulative mortality in the Vehicle Control group was 19/20 mice. In contrast, only 5/20 of the COMPOUND AA mice died during this time.

[2] = system: ob/ob obese diabetic mice; test: Acute hypoglycemic effect in ob/ob obese diabetic mice: Experiment 1; assay type: in vivo; conditions: single oral dose by gavage, 6 hours
Protocol: Male ob/ob diabetic mice were randomized into groups of five animals each. Body weights were 50-55 g and blood glucose was approximately 300 mg/dL in the fed state. A single oral dose of a test substance suspended in 0.5% carboxymethylcellulose vehicle was administered by gavage. Blood glucose was measured in blood droplets obtained by nicking a tail vein with a razor using glucometer test strips and a Glucometer Elite XL device (Bayer) at 0, 0.5, 2, 4, 6 and 18 hours after the initial dosing. A 10% reduction in blood glucose versus oral vehicle is considered a positive screening result. Blood glucose reductions were generally maximal at 6 hours after drug administration.

[3] = system: mice with lethal insulin-dependent diabetes; test: Survival of mice with lethal insulin-dependent diabetes (single dose streptozotocin); assay type: in vivo, Balb/C mice; conditions: for Survivors (Survival at 12 weeks): STZ 175 mg/kg i.p. Balb/C mice
Protocol: Female Balb/C mice (14 weeks old) were treated with a single dose of streptozotocin (175 mg/kg i.p.) to induce severe insulin-dependent diabetes. Seven days later, mice were divided into three treatment groups: Compound AH, pioglitazone, and vehicle. Mice were treated daily via oral gavage, and survival was monitored over time.

[4] = system: streptozotocin diabetic mice; test: Serum chemistries and body weights in streptozotocin diabetic mice treated with oral Compound AH for 14 weeks; assay type: in vivo, Balb/C mice
Protocol: Streptozotocin (STZ) is a toxin that selectively destroys insulin-producing pancreatic beta cells, and is widely used to induce insulin-dependent diabetes in experimental animals.
Female Balb/C mice (8 weeks old; 18-20 grams body weight) were treated with streptozotocin (STZ) (50 mg/kg i.p. on each of five consecutive days). Fourteen days after the last dose of STZ, blood glucose was measured to verify that the animals were diabetic, and the mice were divided into two groups of 5 animals each, one group receiving Compound AH (250 mg/kg) daily by oral gavage, and the other receiving vehicle (0.75% hydroxypropylmethylcellulose, a suspending agent, in water). […] Blood samples were taken periodically for determination of blood glucose concentrations, and body weights were also recorded.
Body weights and blood glucose, triglyceride and cholesterol concentrations 14 weeks after the beginning of drug treatment are shown in Table 1.

[5] = system: NOD mice; test: Incidence of spontaneous diabetes and mortality in NOD mice; assay type: in vivo; conditions: 200 mg/kg/day oral, seven months
Protocol: A substantial proportion of NOD (“non-obese diabetic”) mice develop insulin-dependent diabetes as a consequence of spontaneous autoimmune destruction of pancreatic islet cells. Two groups of 20 NOD mice (6 weeks old) were treated daily with either oral Vehicle (0.4 ml of 0.75% hydroxypropyl methylcellulose in water; HPMC) or Compound AH (200 mg/kg/day) suspended in HPMC. The incidence of mortality due to spontaneous development of severe insulin-dependent diabetes was monitored over a period of seven months. At the end of this time, 13/20 mice treated with vehicle had died of uncontrolled diabetes, whereas only 5/20 mice treated with Compound AH had died.

[6] = system: db/db mice; test: Antidiabetic effects in db/db mice, 2 weeks (Example I); assay type: in vivo, C57BL/Ksola mice; conditions: for Glucose / Glucose (% of Control): nonfasting; for Free Fatty Acids ± SEM / Triglycerides ± SEM: serum
Text: (§1) db/db mice have a defect in leptin signaling, leading to hyperphagia, obesity and diabetes. Moreover, unlike ob/ob mice on a C57BL/6J background, db/db mice on a C57BL/KS background undergo failure of their insulin-producing pancreatic islet β cells, resulting in progression from hyperinsulinemia (associated with peripheral insulin resistance) to hypoinsulinemic diabetes.
(§2) A minimum of 7 days was allowed for adaptation after arrival.
Treatment cohorts were given daily oral doses of (1% hydroxypropylmethylcellulose), Compounds BI, BO, BP, BQ or BR for 2 weeks. At the end of the treatment period 100 μl of venous blood was withdrawn in a heparinized capillary tube from the retro-orbital sinus of db/db mice for serum chemistry analysis.

[7] = system: db/db mice; test: Antidiabetic effects in db/db mice, second experiment, 8 weeks of treatment; assay type: in vivo
Text: (§3) Blood samples were obtained via the retro-orbital sinus for serum chemistry analysis, or via the tail vein for glucose measurement with a test strip and glucometer.
Groups consisted of 6-8 mice each.

[8] = system: high fat-fed C57Bl/6J mice; test: Circulating triglycerides, free fatty acids, insulin and leptin in high fat-fed C57Bl/6J mice; assay type: in vivo; conditions: for Free Fatty Acids / Triglycerides: after 2 weeks of drug treatments
Text: The high fat-fed mouse is a model for the hypertriglyceridemia and high circulating fatty acid levels, and the insulin and leptin resistance that are found in people at risk for and with obesity, diabetes, cardiovascular disease and other disorders. Male C57Bl/6J mice, approximately 8 weeks of age, were randomly assigned into groups of 6 animals. […] Mice were fed a high-fat diet (diet number D12451, containing 45% of calories as fat (Research Diets, New Brunswick, N.J.)) for 6 weeks. […]

[9] = system: db/db mice; test: Antidiabetic effects in db/db mice, 2 weeks (Example J); assay type: in vivo, C57BL/Ksola mice
Text: as §1, with “islet” for “islet β”
as §2
Treatment cohorts were given daily oral doses of Vehicle (1% hydroxypropylmethylcellulose), Compounds BI, BS, BT, BU, BV or Fenofibrate for 2 weeks. At the end of the treatment period 100 μl of venous blood was withdrawn in a heparinized capillary tube from the retro-orbital sinus of db/db mice for serum chemistry analysis.

[10] = system: Zucker Diabetic Fatty (ZDF) rats; test: Attenuation of cataractogenesis in Zucker Diabetic Fatty (ZDF) rats; assay type: in vivo; conditions: 100 mg/kg daily oral, 10 weeks
Text: Cataracts are one of the leading causes of progressive vision decline and blindness associated with ageing and diabetes, and the Zucker diabetic fatty (ZDF) model has many similarities with human cataractogenesis, including biochemical changes and oxidative stress in the lens. These rats, however, undergo cataractogenesis typically between 14-16 weeks of age.
Male ZDF rats and their aged-match Zucker lean (ZL) counterparts (fa/+ or +/+) were obtained from Genetic Models, Inc. (Indianapolis, Ind.) aged 12 weeks and acclimatized for 1 week prior to study. […] Treatment cohorts were given a daily oral dose of vehicle and 100 mg/kg of BI or BH for 10 weeks. […] At the end of the treatment period 100 μl of venous blood was collected (usually 10:00 A.M.) in a heparinized tube from the tail vein for serum chemistry analysis (Anilytics, Inc., Gaithersburg, Md.). […] Plasma insulin was measured by an electrochemiluminescent immunoassay, ECL (Origen Analyzer, Igen, Inc., Gaithersburg, Md.). The animals were sacrificed and tissues and/or organs (lens and liver) were extirpated, weighed (wet weight) and processed for biochemical analyses. Malondialdehyde (MDA), a major product of lipid peroxidation was assayed in lenses according to Ohkawa et al (1979), Analytical Biochem 95, 351-358).

[11] = system: db/db mice; test: Antidiabetic effects in db/db mice, four weeks of daily oral dosing; assay type: in vivo; conditions: 100 mg/kg daily oral, four weeks
Text: Db/db mice have a defect in leptin signaling, leading to hyperphagia, obesity and diabetes. Moreover, unlike ob/ob mice which have relatively robust islets, their insulin-producing pancreatic islet cells undergo failure during chronic hyperglycemia, so that they transition from hyperinsulinemia (associated with peripheral insulin resistance) to hypoinsulinemic diabetes.
as §3, with “Male db/db mice were given daily oral treatments with vehicle (0.75% hydroxypropylmethylcellulose) or antidiabetic compounds as indicated below. Blood” for “Blood”
The dose of pioglitazone used in this experiment was reported in the literature to be a maximally-effective dose for treatment of db/db mice (Shimaya et al. (2000), Metabolism 49:411-7).

[12] = system: ob/ob mice; test: Hyperglycemia, hyperlipidemia, fatty liver disease and weight gain in ob/ob obese diabetic mice, daily oral dosing; assay type: in vivo, C57BL/6 mice; conditions: for Free Fatty Acids ± SEM / Glucose ± SEM / Triglycerides ± SEM / ALT (U/L) ± SEM / AST (U/L) ± SEM / SDH (U/L) ± SEM: 4 weeks; for Mean body weight gain (grams): four week treatment period; for ALT (U/L) ± SEM / AST (U/L) ± SEM / SDH (U/L) ± SEM: serum
Text: Ob/ob mice have a defect in the gene for leptin, a protein involved in appetite regulation and energy metabolism, and are hyperphagic, obese, and insulin resistant. They develop hyperglycemia and fatty liver.

[13] = streptozotocin diabetic Balb/C mice, 250 mg/kg daily oral gavage, 14 weeks
[14] = 150 mg/kg, 8 weeks of treatment
[15] = nonfasting, 100 mg/kg daily oral
[16] = serum, daily oral, dose per Table 12: 100 mg/kg

O=C(O)CCC(=O)c1ccc(OCc2ccccc2F)cc1 [Compound AA, 4-(4-(2-Fluorobenzyloxy)phenyl)-4-oxobutyric acid]
cumulative mortality [1]: 5/20 | % Reduction vs Control [2]: −18.5 ± 8.4% | Blood Glucose after 6 hours [2]: 242 ± 25 mg/dL

O=C(O)CCC(=O)c1ccc(OCc2c(F)cccc2F)cc1 [Compound AH, 4-(4-(2,6-Difluorobenzyloxy)phenyl)-4-oxobutyric acid]
% Reduction vs Control [2]: −24.9 ± 3.7% | Blood Glucose after 6 hours [2]: 223 ± 11 mg/dL | body weights of survivors at 12 weeks ([3]; 250 mg/kg/day oral gavage): recovered and were maintained in the normal range | Survivors (Survival at 12 weeks) ([3]; 250 mg/kg/day oral gavage): 4/5 | blood glucose concentrations ([4]; 250 mg/kg daily oral, after several weeks of treatment): began to decrease toward baseline | metabolic abnormalities associated with insulin-dependent diabetes ([4]; oral treatment, 250 mg/kg daily): significant amelioration | Body Weight [4, 13]: 21.7 ± 0.8 g | Cholesterol [4, 13]: 82 ± 2 mg/dL | Glucose [4, 13]: 207 ± 12 mg/dL | Triglycerides [4, 13]: 62 ± 7 mg/dL | mortality due to spontaneous severe insulin-dependent diabetes [5]: 5/20

Cc1cccc(C)c1COc1cccc(C(=O)CCC(=O)O)c1 [Compound BI, 4-(3-(2,6-Dimethylbenzyloxy)phenyl)-4-oxobutyric acid]
Glucose ([6]; 100 mg/kg daily oral): 423 ± 53 mg/dL | Glucose (% of Control) ([6]; 100 mg/kg daily oral): 67 ± 8 % of Control | Glucose ([6]; 150 mg/kg daily oral): 279 ± 35 mg/dL | Glucose (% of Control) ([6]; 150 mg/kg daily oral): 44 ± 6 % of Control | Free Fatty Acids ± SEM ([6]; 100 mg/kg daily oral): 2999.9 ± 98.7 µM | Triglycerides ± SEM ([6]; 100 mg/kg daily oral): 134.0 ± 13.1 mg/dL | Free Fatty Acids ± SEM ([6]; 150 mg/kg daily oral): 2234.0 ± 162.6 µM | Triglycerides ± SEM ([6]; 150 mg/kg daily oral): 103.6 ± 8.3 mg/dL | Glucose [7, 14]: 254 ± 30 mg/dL | Triglycerides [7, 14]: 99 ± 8 mg/dL | blood glucose and triglycerides compared to vehicle-treated controls ([7]; after 8 weeks of treatment): significantly lower | Free Fatty Acids ([8]; 10 mg/kg oral gavage): 1227 ± 193.7 µmol/L | Triglycerides ([8]; 10 mg/kg oral gavage): 68.8 ± 5.7 mg/dL | Free Fatty Acids ([8]; 30 mg/kg oral gavage): 1292 ± 231.4 µmol/L | Triglycerides ([8]; 30 mg/kg oral gavage): 66.5 ± 14.7 mg/dL | Free Fatty Acids ([8]; 100 mg/kg oral gavage): 992.8 ± 172.1 µmol/L | Triglycerides ([8]; 100 mg/kg oral gavage): 37.4 ± 8.3 mg/dL | serum triglycerides and free fatty acids ([8]; oral gavage): effective at lowering | insulin serum levels ([8]; oral gavage, after 4 weeks of drug treatments (FIG. 1)): effective at lowering | leptin serum levels ([8]; oral gavage, after 4 weeks of drug treatments (FIG. 2)): effective at lowering | Glucose [9, 15]: 347.0 ± 43.1 mg/dL | Glucose (% of Control) [9, 15]: 50 ± 6 % of Control | Free Fatty Acids ± SEM [9, 16]: 1997.2 ± 196.4 µM | Triglycerides ± SEM [9, 16]: 77.8 ± 5.3 mg/dL | % Protection Left Eye [10]: 50% | % Protection Right Eye [10]: 83% | Cataract Formation Left Eye [10]: 3/6 | Cataract Formation Right Eye [10]: 1/6 | Lenticular MDA ([10]; means ± SEM): 0.8 ± 0.1 nmol/g lens | Size (mm) Left Lens ([10]; means ± SEM): 3.4 ± 0.2 mm | Size (mm) Right Lens ([10]; means ± SEM): 3.8 ± 0.1 mm | Weight (mg) Left Lens ([10]; means ± SEM): 38.1 ± 7.3 mg | Weight (mg) Right Lens ([10]; means ± SEM): 54.9 ± 1.2 mg

CCc1ccc(CCOc2ccc(CC3SC(=O)NC3=O)cc2)nc1 (centres unmarked) [Pioglitazone, pioglitazone, reference compound]
body weight lost by survivors at 12 weeks ([3]; 30 mg/kg/day oral gavage): 15-20% | Survivors (Survival at 12 weeks) ([3]; 30 mg/kg/day oral gavage): 2/5 | Glucose [11]: 558 ± 28 mg/dL | Glucose (% of Control) [11]: 99 ± 5 % of Control | Free Fatty Acids ± SEM ([12]; 30 mg/kg/day oral): 2606 ± 139.2 µmol/L | Glucose ± SEM ([12]; 30 mg/kg/day oral): 188.2 ± 21.4 mg/dL | Triglycerides ± SEM ([12]; 30 mg/kg/day oral): 111.2 ± 7.5 mg/dL | Mean body weight gain (grams) ([12]; 30 mg/kg/day): +10.0 grams | Free Fatty Acids ± SEM ([12]; 100 mg/kg/day oral): 1983.4 ± 66.1 µmol/L | Glucose ± SEM ([12]; 100 mg/kg/day oral): 174.6 ± 11.5 mg/dL | Triglycerides ± SEM ([12]; 100 mg/kg/day oral): 95.2 ± 4.8 mg/dL | Mean body weight gain (grams) ([12]; 100 mg/kg/day): +13.6 grams | ALT (U/L) ± SEM ([12]; 30 mg/kg/day oral): 713.6 ± 80.6 U/L | AST (U/L) ± SEM ([12]; 30 mg/kg/day oral): 1024 ± 88.7 U/L | SDH (U/L) ± SEM ([12]; 30 mg/kg/day oral): 782.0 ± 70.6 U/L | ALT (U/L) ± SEM ([12]; 100 mg/kg/day oral): 646.0 ± 56.1 U/L | AST (U/L) ± SEM ([12]; 100 mg/kg/day oral): 901.0 ± 49.3 U/L | SDH (U/L) ± SEM ([12]; 100 mg/kg/day oral): 603.0 ± 27.3 U/L
